Laboratory results as given in the supplement of paper PMC10307832.

Columns and labels:
Experiment in all cases: relative viability (nuclei count vs DMSO), 5 days (fraction); higher = more cells survive
BMX-IN-1 + Tozasertib = compound: C=CC(=O)Nc1cc(-n2c(=O)ccc3cnc4ccc(-c5ccc(NS(C)(=O)=O)cc5)cc4c32)ccc1C [BMX-IN-1] + Cc1cc(Nc2cc(N3CCN(C)CC3)nc(Sc3ccc(NC(=O)C4CC4)cc3)n2)n[nH]1 [Tozasertib] (partner 0.1 µM)
Outline: (§1)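 Relative viability is defined as nuclei in treated wells over nuclei in vehicle wells. Duplicate plates were run and medians reported. Lung cancer cell lines in 1536-well plates were dosed by pin tool one day after seeding, with one drug or with a fixed anchor-drug dose plus five library-drug doses (not always all listed) in √10 steps, and nuclei were counted after 5 days.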

Ibrutinib + Luminespib = compound: C=CC(=O)N1CCC[C@@H](n2nc(-c3ccc(Oc4ccccc4)cc3)c3c(N)ncnc32)C1 [Ibrutinib] + CCNC(=O)c1noc(-c2cc(C(C)C)c(O)cc2O)c1-c1ccc(CN2CCOCC2)cc1 [Luminespib] (partner 0.01 µM)
Outline: as §1

BMX-IN-1 + AZD7762 = compound: C=CC(=O)Nc1cc(-n2c(=O)ccc3cnc4ccc(-c5ccc(NS(C)(=O)=O)cc5)cc4c32)ccc1C [BMX-IN-1] + NC(=O)Nc1cc(-c2cccc(F)c2)sc1C(=O)N[C@H]1CCCNC1 [AZD7762] (partner 0.2 µM)
Outline: as §1

BMX-IN-1 + Phenformin = compound: C=CC(=O)Nc1cc(-n2c(=O)ccc3cnc4ccc(-c5ccc(NS(C)(=O)=O)cc5)cc4c32)ccc1C [BMX-IN-1] + N=C(N)NC(=N)NCCc1ccccc1 [Phenformin] (partner 250 µM)
Outline: as §1

Cell Line | relative viability (BMX-IN-1 + Tozasertib; first compound 0.02 µM) | relative viability (BMX-IN-1 + Tozasertib; first compound 0.2 µM) | relative viability (BMX-IN-1 + Tozasertib; first compound 0.6325 µM) | relative viability (BMX-IN-1 + Tozasertib; first compound 2 µM) | relative viability (Ibrutinib + Luminespib; first compound 0.005 µM) | relative viability (Ibrutinib + Luminespib; first compound 0.01581 µM) | relative viability (Ibrutinib + Luminespib; first compound 0.05 µM) | relative viability (Ibrutinib + Luminespib; first compound 0.1581 µM) | relative viability (Ibrutinib + Luminespib; first compound 0.5 µM) | relative viability (BMX-IN-1 + AZD7762; first compound 0.02 µM) | relative viability (BMX-IN-1 + AZD7762; first compound 0.2 µM) | relative viability (BMX-IN-1 + AZD7762; first compound 0.6325 µM) | relative viability (BMX-IN-1 + AZD7762; first compound 2 µM) | relative viability (BMX-IN-1 + Phenformin; first compound 0.02 µM) | relative viability (BMX-IN-1 + Phenformin; first compound 0.2 µM) | relative viability (BMX-IN-1 + Phenformin; first compound 0.6325 µM) | relative viability (BMX-IN-1 + Phenformin; first compound 2 µM)
NCI-H1355 | 0.607 | 0.664 | 0.532 | 0.518 | 0.55 | 0.648 | 0.715 | 0.858 | 0.517 | 0.872 | 0.85 | 0.838 | 0.755 | 0.397 | 0.477 | 0.453 | 0.481
LK-2 | 0.223 | 0.173 | 0.161 | 0.184 | – | 0.183 | 0.176 | 0.166 | 0.164 | 0.397 | 0.297 | 0.323 | 0.41 | 0.487 | 0.505 | 0.473 | 0.548
NCI-H1650 | 0.374 | 0.503 | 0.364 | 0.41 | 0.211 | 0.196 | 0.192 | 0.194 | 0.209 | – | – | – | – | 0.493 | 0.44 | 0.446 | 0.413
NCI-H838 | 0.322 | 0.318 | 0.279 | 0.313 | 0.288 | – | 0.266 | 0.326 | 0.325 | 1.06 | 1.01 | 0.956 | 1.01 | 0.564 | 0.739 | 0.744 | 0.572
EMC-BAC-2 | 0.286 | 0.287 | 0.289 | 0.274 | 1.15 | 1.14 | 1.25 | 1.15 | 1.05 | 1.32 | 1.31 | 1.1 | 1.14 | 0.553 | 0.573 | 0.56 | 0.515
SW 1573 | 0.115 | 0.175 | 0.185 | 0.177 | 0.419 | 0.382 | 0.198 | 0.288 | 0.582 | – | – | – | – | 0.383 | 0.446 | 0.342 | 0.351
CAL-12T | 0.345 | 0.375 | 0.344 | 0.297 | 0.417 | 0.14 | 0.416 | 0.276 | 0.302 | 0.665 | 0.76 | 0.647 | 0.613 | 0.59 | 0.544 | 0.579 | 0.54
NCI-H2009 | 0.826 | 0.853 | 0.781 | 0.712 | 1.07 | 1.06 | 1.07 | 1.02 | 1.05 | – | – | – | – | 0.47 | 0.549 | 0.531 | 0.485
HARA | 0.0824 | 0.0995 | 0.111 | 0.092 | 0.975 | 0.748 | 0.548 | 0.746 | 0.324 | 0.47 | 0.454 | 0.26 | 0.322 | 0.413 | 0.619 | 0.489 | 0.409
HCC-827 | 0.524 | 0.434 | 0.415 | 0.442 | 0.657 | 0.355 | 0.589 | 0.673 | 0.212 | 0.217 | 0.207 | 0.251 | 0.194 | 0.342 | 0.42 | 0.4 | 0.421
NCI-H647 | 0.283 | 0.0553 | 0.394 | 0.232 | – | 0.14 | 0.239 | 0.181 | 0.196 | 0.492 | 0.583 | 0.71 | 0.62 | 0.537 | 0.547 | 0.599 | 0.661
A549 | – | – | – | – | – | – | – | – | – | – | – | – | – | 0.164 | 1.01 | 0.17 | 0.188
NCI-H661 | 0.378 | 0.358 | 0.352 | 0.348 | 1 | 0.835 | 0.772 | 0.934 | 0.653 | – | – | – | – | 0.242 | 0.259 | 0.282 | 0.255
NCI-H1651 | 0.848 | 1 | 0.735 | 0.731 | 0.847 | 1.05 | 0.93 | 0.876 | 0.921 | 0.557 | 0.503 | 0.527 | 0.422 | 0.292 | 0.451 | 0.394 | 0.363
HCC-78 | 0.472 | 0.474 | 0.52 | 0.36 | – | – | – | – | – | 0.662 | 0.64 | 0.587 | 0.726 | 0.726 | 0.761 | 0.834 | 0.697
NCI-H2085 | 0.873 | 0.754 | 0.794 | 0.734 | 0.349 | 0.465 | 0.504 | 0.489 | 0.447 | 1.08 | 1.07 | 0.986 | 0.996 | 0.664 | 0.68 | 0.81 | 0.707
NCI-H2228 | 0.243 | 0.245 | 0.243 | 0.224 | 0.121 | – | 0.116 | 0.131 | 0.144 | – | – | – | – | 0.339 | 0.388 | 0.458 | 0.37
LU99A | 0.275 | 0.294 | 0.275 | 0.293 | 0.191 | 0.24 | 0.285 | 0.249 | 0.248 | 0.393 | 0.416 | 0.415 | 0.288 | 0.817 | 0.811 | 1.06 | 0.759
NCI-H522 | 0.573 | 0.666 | 0.605 | 0.532 | 1.11 | 1.05 | 1.17 | 1.07 | 0.922 | 1.07 | 0.914 | 0.769 | 0.846 | 0.77 | 0.64 | 0.669 | 0.635
LCLC-97TM1 | 0.203 | 0.274 | 0.289 | 0.203 | 0.795 | 0.656 | 0.798 | 0.867 | 0.735 | 0.235 | 0.239 | 0.327 | 0.202 | 0.383 | 0.455 | 0.503 | 0.471
NCI-H2023 | 0.363 | 0.43 | 0.434 | 0.333 | 0.671 | 0.678 | 0.665 | 0.737 | 0.907 | – | – | – | – | 0.466 | 0.522 | 0.418 | 0.413
